Experimental data from paper PMC8881501, “Identification of SARS-CoV-2 inhibitors targeting Mpro and PLpro using in-cell-protease assay” (Communications Biology, 2022).
Several values for one entry are separate records, joined by “and”; a condition that tells them apart may be missing. Identical values can stand only once.

How the values were obtained:
SARS-CoV-2 Mpro [1] = molecular target: T1, SARS-CoV-2 Mpro (Severe acute respiratory syndrome coronavirus 2, UniProt P0DTC1); assay: In-cell protease (ICP) assay, Mpro construct in HEK293T cells; type: cell-based; conditions: HEK-293T; for remaining activity at 1 µM: read-out: mEmerald-NLS nuclear/total fluorescence (protease activity) normalized to untreated cells, 1 μM, HEK293T, Fig 2A replicate data, untreated control = 100; for remaining activity at 10 µM: read-out: mEmerald-NLS nuclear/total fluorescence (protease activity) normalized to untreated cells, 10 μM, HEK293T, Fig 2A replicate data, untreated control = 100
HEK293T cells = assay: Cell viability (alamarBlue) on HEK293T cells; conditions: replicate data
SARS-CoV-2 [2] = assay: microbe, parasite or virus in culture; type: cell-based; conditions: Severe acute respiratory syndrome coronavirus 2, Huh7.5, Huh-7.5 cells
SARS-CoV-2 [3] = type: cell-based; conditions: Huh-7.5, MOI 0.1, 24 h.p.i., anti-N IFA
SARS-CoV-2 Mpro [4] = molecular target: T1, SARS-CoV-2 Mpro; assay: biochemical; conditions: FRET assay
Method: A cleavage site is indicated by an asterisk. […] N = 3, values are represented as mean ± SE.
For the determination of half-maximal inhibitory concentrations (IC50) of MG-101 and GC376 (BPS Bioscience), a synthetic substrate of Mpro containing FRET pair and Mpro nsp4/5 cleavage site (indicated by an arrow, Dabcyl-KTSAVLQ ↓ SGFRKME-Edans) (BPS Bioscience) was used for the FRET-based cleavage assay. The assay was performed in 96-well, black, flat-bottomed microtiter plates (Greiner Bio-One, Germany) with a final volume of 50 μl. Mpro (a final concentration of 200 nM) was pre-incubated for 1 h at 22 °C with compounds at different concentrations in the assay buffer (20 mM HEPES (pH 7), 0.5 mM EDTA, 1 mM dithiothreitol, 5% glycerol). The substrate was then added at a final concentration of 10 μM to the reaction mixture and the reaction was incubated for 4 h at 22 °C. The readings for the different concentrations of the inhibitor compounds incubated with the substrate without Mpro were measured as a blank. The fluorescence signals (excitation/emission, 360 nm/460 nm) of released EDANS were measured using Infinite 200 PRO multimode plate reader (Tecan, USA). The results were plotted as dose inhibition curves using nonlinear regression with a variable slope to determine the IC50 values of inhibitor compounds using GraphPad Prism 9.0.

in vitro = conditions: human, CC50

In the case of `C=C[C@@H]1C[C@]1(NC(=O)[C@@H]1C[C@@H](Oc2ncc(OC)c3ccc(Cl)cc23)CN1C(=O)[C@@H](NC(=O)OC(C)(C)C)C(C)(C)C)C(=O)NS(=O)(=O)C1CC1` [Asunaprevir], the remaining activity at 1 µM (SARS-CoV-2 Mpro [1]) is reported as 88%, the remaining activity at 10 µM (SARS-CoV-2 Mpro [1]) is reported as 69% and the “% normalised alamar Blue reduction at 10μM” value (HEK293T cells) is reported as 78% and 88% and 90%.
Molecule `Cn1c(N2CCCCS2(=O)=O)nc(C(=O)NCc2ccc(F)cc2)c(O)c1=O` [BMS-707035] has a remaining activity at 1 µM (SARS-CoV-2 Mpro [1]) of 79%, a remaining activity at 10 µM (SARS-CoV-2 Mpro [1]) of 60% and an EC50 (SARS-CoV-2 [2]) of 0.27 µM. The “inhibition of virus spread compared to untreated controls” value (SARS-CoV-2 [3]) was 81%, the “inhibition of Mpro protease activity” value (SARS-CoV-2 Mpro [4]) was “not found to be effectively inhibiting the Mpro protease activity” and the CC50 at 24 h (in vitro) was 42.2 µM.
In the case of `CC(C)(C)NC(=O)N[C@H](C(=O)N1C[C@H]2[C@@H]([C@H]1C(=O)NC(CC1CCC1)C(=O)C(N)=O)C2(C)C)C(C)(C)C` (some centres unmarked) [Bocoprevir], the remaining activity at 1 µM (SARS-CoV-2 Mpro [1]) is reported as 71% and the remaining activity at 10 µM (SARS-CoV-2 Mpro [1]) is reported as 69%.
For `COC(=O)N[C@H](C(=O)N1CCC[C@H]1c1nc(-c2ccc(-c3ccc(-c4c[nH]c([C@@H]5CCCN5C(=O)[C@@H](NC(=O)OC)C(C)C)n4)cc3)cc2)c[nH]1)C(C)C` [Daclatasvir (BMS-790052)], the “% normalised alamar Blue reduction at 10μM” value (HEK293T cells) was 80% and 88% and 75%.
In the case of `CC(C)CN(C[C@@H](O)[C@H](Cc1ccccc1)NC(=O)O[C@H]1CO[C@H]2OCC[C@H]21)S(=O)(=O)c1ccc(N)cc1` [Darunavir], the “% normalised alamar Blue reduction at 10μM” value (HEK293T cells) is reported as 80% and 97% and 79%.
Molecule `COc1cc(O)c(CC=C(C)C)c2c1C(=O)CC(c1ccc(O)cc1)O2` (centres unmarked) [Isoxanthohumol] has a remaining activity at 1 µM (SARS-CoV-2 Mpro [1]) of 90% and a remaining activity at 10 µM (SARS-CoV-2 Mpro [1]) of 60%.
With `CC(C)(C)C#Cc1cc(N(C(=O)[C@H]2CC[C@H](C)CC2)[C@H]2CC[C@H](O)CC2)c(C(=O)O)s1` [Lomibuvir] the remaining activity at 1 µM (SARS-CoV-2 Mpro [1]) was 90%, the remaining activity at 10 µM (SARS-CoV-2 Mpro [1]) was 44% and the EC50 (SARS-CoV-2 [2]; MOI 0.1, 24 h.p.i., plaque assay) was 0.07 µM. The “inhibition of virus spread compared to untreated controls” value (SARS-CoV-2 [3]) was “below 50%”, the “inhibition of Mpro protease activity” value (SARS-CoV-2 Mpro [4]) was “not found to be effectively inhibiting the Mpro protease activity” and the CC50 at 24 h (in vitro) was 48 µM.
For `Cc1cccc(C)c1OCC(=O)N[C@@H](Cc1ccccc1)[C@@H](O)C[C@H](Cc1ccccc1)NC(=O)[C@H](C(C)C)N1CCCNC1=O` [Lopinavir], the remaining activity at 1 µM (SARS-CoV-2 Mpro [1]) was 80% and the remaining activity at 10 µM (SARS-CoV-2 Mpro [1]) was 65%.
